Values after ≈ are worked out from the molar mass of the structure shown.
System: Escherichia coli
Experiment: minimum inhibitory concentration (MIC)
Protocol: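 Broth microdilution MIC (Sensititre BOPO7F bovine plate, CLSI methods) of 19 antimicrobials against field isolates of P. multocida, M. haemolytica, H. somni (deep nasopharyngeal swabs) and E. coli, Enterococcus spp. (rectal swabs) from weaned dairy heifers. Incubation 16-24 h at 35 C. MIC is the lowest concentration preventing visible growth. Values with <= or > lie at the tested range limits. Trimethoprim-sulfamethoxazole is given as the trimethoprim component of a 1:19 mixture.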

CC[C@H]1OC(=O)C[C@@H](O)[C@H](C)[C@@H](O[C@@H]2O[C@H](C)[C@@H](O)[C@H](N(C)C)[C@H]2O)[C@@H](CCN2C[C@H](C)C[C@H](C)C2)C[C@@H](C)C(=O)/C=C/C(C)=C/[C@@H]1CO[C@@H]1O[C@H](C)[C@@H](O)[C@@H](OC)[C@H]1OC [Tilmicosin]
Conditions	minimum inhibitory concentration [µg/mL]
isolate (source animal id): 8	> 16
isolate (source animal id): 9	> 16
isolate (source animal id): 10	> 16
isolate (source animal id): 11	> 16
isolate (source animal id): 12	> 16
isolate (source animal id): 13	> 16
isolate (source animal id): 14	> 16
isolate (source animal id): 15	> 16
isolate (source animal id): 16	> 16
isolate (source animal id): 98	> 16
isolate (source animal id): 99	> 16
isolate (source animal id): 100	> 16
isolate (source animal id): 101	> 16
isolate (source animal id): 102	> 16
isolate (source animal id): 103	> 16
isolate (source animal id): 104	> 16
isolate (source animal id): 105	> 16
isolate (source animal id): 106	> 16
isolate (source animal id): 107	> 16
isolate (source animal id): 108	> 16
isolate (source animal id): 109	> 16
isolate (source animal id): 110	> 16
isolate (source animal id): 111	> 16
isolate (source animal id): 112	> 16
isolate (source animal id): 113	> 16
isolate (source animal id): 114	> 16
isolate (source animal id): 115	> 16
isolate (source animal id): 116	> 16
isolate (source animal id): 117	> 16
isolate (source animal id): 118	> 16
isolate (source animal id): 119	> 16
isolate (source animal id): 120	> 16
isolate (source animal id): 121	> 16
isolate (source animal id): 122	> 16
isolate (source animal id): 123	> 16
isolate (source animal id): 124	> 16
isolate (source animal id): 125	16 (≈ 18.4 µM)
isolate (source animal id): 126	> 16
isolate (source animal id): 127	> 16
isolate (source animal id): 128	> 16
isolate (source animal id): 129	> 16
isolate (source animal id): 130	> 16
isolate (source animal id): 131	> 16
isolate (source animal id): 132	> 16
isolate (source animal id): 133	> 16
isolate (source animal id): 134	> 16
isolate (source animal id): 135	> 16
isolate (source animal id): 136	> 16
isolate (source animal id): 137	> 16
isolate (source animal id): 138	> 16
isolate (source animal id): 139	> 16
isolate (source animal id): 140	> 16
isolate (source animal id): 141	> 16
isolate (source animal id): 142	> 16
isolate (source animal id): 143	> 16
isolate (source animal id): 144	> 16
isolate (source animal id): 145	> 16
isolate (source animal id): 146	> 16
isolate (source animal id): 147	> 16
isolate (source animal id): 148	> 16
isolate (source animal id): 149	> 16
isolate (source animal id): 150	> 16
isolate (source animal id): 151	> 16
isolate (source animal id): 152	> 16
isolate (source animal id): 153	> 16
isolate (source animal id): 154	> 16
isolate (source animal id): 155	> 16
isolate (source animal id): 156	> 16
isolate (source animal id): 157	> 16
isolate (source animal id): 158	> 16
isolate (source animal id): 159	> 16
isolate (source animal id): 160	> 16
isolate (source animal id): 161	> 16
isolate (source animal id): 162	> 16
isolate (source animal id): 163	> 16
isolate (source animal id): 164	> 16
isolate (source animal id): 165	> 16
isolate (source animal id): 166	> 16
isolate (source animal id): 167	> 16
isolate (source animal id): 168	> 16
isolate (source animal id): 169	> 16
isolate (source animal id): 170	> 16
isolate (source animal id): 171	> 16
isolate (source animal id): 172	> 16
isolate (source animal id): 173	> 16
isolate (source animal id): 174	> 16
isolate (source animal id): 175	> 16
isolate (source animal id): 176	> 16
isolate (source animal id): 177	> 16
isolate (source animal id): 178	> 16
isolate (source animal id): 179	> 16
isolate (source animal id): 180	> 16
isolate (source animal id): 181	> 16
isolate (source animal id): 182	> 16
isolate (source animal id): 183	> 16
isolate (source animal id): 184	> 16
isolate (source animal id): 185	> 16
isolate (source animal id): 186	> 16
isolate (source animal id): 187	> 16
isolate (source animal id): 188	> 16

COc1cc(NS(=O)(=O)c2ccc(N)cc2)nc(OC)n1 [sulfadimethoxine]
Conditions	minimum inhibitory concentration [µg/mL]
isolate (source animal id): 8	> 256
isolate (source animal id): 9	> 256
isolate (source animal id): 10	> 256
isolate (source animal id): 11	≤ 256
isolate (source animal id): 12	> 256
isolate (source animal id): 13	≤ 256
isolate (source animal id): 14	> 256
isolate (source animal id): 15	≤ 256
isolate (source animal id): 16	> 256
isolate (source animal id): 98	≤ 256
isolate (source animal id): 99	≤ 256
isolate (source animal id): 100	> 256
isolate (source animal id): 101	> 256
isolate (source animal id): 102	> 256
isolate (source animal id): 103	> 256
isolate (source animal id): 104	> 256
isolate (source animal id): 105	> 256
isolate (source animal id): 106	> 256
isolate (source animal id): 107	> 256
isolate (source animal id): 108	> 256
isolate (source animal id): 109	≤ 256
isolate (source animal id): 110	> 256
isolate (source animal id): 111	> 256
isolate (source animal id): 112	> 256
isolate (source animal id): 113	> 256
isolate (source animal id): 114	≤ 256
isolate (source animal id): 115	> 256
isolate (source animal id): 116	> 256
isolate (source animal id): 117	> 256
isolate (source animal id): 118	≤ 256
isolate (source animal id): 119	> 256
isolate (source animal id): 120	> 256
isolate (source animal id): 121	> 256
isolate (source animal id): 122	> 256
isolate (source animal id): 123	> 256
isolate (source animal id): 124	> 256
isolate (source animal id): 125	> 256
isolate (source animal id): 126	> 256
isolate (source animal id): 127	> 256
isolate (source animal id): 128	> 256
isolate (source animal id): 129	> 256
isolate (source animal id): 130	> 256
isolate (source animal id): 131	> 256
isolate (source animal id): 132	> 256
isolate (source animal id): 133	> 256
isolate (source animal id): 134	> 256
isolate (source animal id): 135	≤ 256
isolate (source animal id): 136	> 256
isolate (source animal id): 137	≤ 256
isolate (source animal id): 138	> 256
isolate (source animal id): 139	> 256
isolate (source animal id): 140	≤ 256
isolate (source animal id): 141	> 256
isolate (source animal id): 142	> 256
isolate (source animal id): 143	> 256
isolate (source animal id): 144	> 256
isolate (source animal id): 145	> 256
isolate (source animal id): 146	> 256
isolate (source animal id): 147	> 256
isolate (source animal id): 148	> 256
isolate (source animal id): 149	> 256
isolate (source animal id): 150	> 256
isolate (source animal id): 151	> 256
isolate (source animal id): 152	> 256
isolate (source animal id): 153	> 256
isolate (source animal id): 154	> 256
isolate (source animal id): 155	> 256
isolate (source animal id): 156	> 256
isolate (source animal id): 157	> 256
isolate (source animal id): 158	> 256
isolate (source animal id): 159	> 256
isolate (source animal id): 160	> 256
isolate (source animal id): 161	> 256
isolate (source animal id): 162	> 256
isolate (source animal id): 163	> 256
isolate (source animal id): 164	> 256
isolate (source animal id): 165	> 256
isolate (source animal id): 166	> 256
isolate (source animal id): 167	> 256
isolate (source animal id): 168	≤ 256
isolate (source animal id): 169	≤ 256
isolate (source animal id): 170	> 256
isolate (source animal id): 171	≤ 256
isolate (source animal id): 172	≤ 256
isolate (source animal id): 173	> 256
isolate (source animal id): 174	≤ 256
isolate (source animal id): 175	> 256
isolate (source animal id): 176	> 256
isolate (source animal id): 177	> 256
isolate (source animal id): 178	> 256
isolate (source animal id): 179	≤ 256
isolate (source animal id): 180	> 256
isolate (source animal id): 181	> 256
isolate (source animal id): 182	> 256
isolate (source animal id): 183	> 256
isolate (source animal id): 184	> 256
isolate (source animal id): 185	> 256
isolate (source animal id): 186	≤ 256
isolate (source animal id): 187	> 256
isolate (source animal id): 188	> 256

Reference: the supplement of paper PMC8612539
